Results on 29 molecules are retold here after patent US11358950B2, “SMAC mimetics used as IAP inhibitors and use thereof” (CHIA TAI TIANQING PHARMACEUTICAL GROUP CO., LTD., priority 2017, dated 2022).

The test system of one assay is MDA-MB-231 cells. The experiment in a line: In-vitro cell viability test (CellTiter-Glo, 7 days). In kind it is cell-based. The following applies: Homo sapiens, 168 h, 7 days incubation. The method, then: RPMI 1640 medium (Invitrogen-22400089); fetal bovine serum (Invitrogen-10099141); Trypsin, 0.05% (1×) with EDTA 4Na (Invitrogen-25300062); luminescent cell viability assay kit (Promega-G7573); Dulbecco's phosphate buffered saline (HyClone-SH30028.01B); and 384-well plate (Corning-6007680). Envision Multi-label Analyzer.
1. 30 μL of MDA-MB-231 cell suspension, which contained 250 MDA-MB-231 cells, was added into the wells of a 384-microwell plate.
2. 20 μL of a test compound (the test compounds were formulated at a high concentration of 10 μM, the test compounds were subjected to a 5-fold gradient dilution, and each compound was diluted to 10 concentration gradients) was added, and then the cell plate was put back into a carbon dioxide incubator to be incubated for 7 days.
3. The cell plate was kept flat at room temperature for 30 minutes.
4. 20 μL of a Promega CellTiter-Glo reagent was added into each well of the cell plate.
5. After 10 minutes, the Envision Multi-label Analyzer was used for data reading.
A general note: ATP-based viability assays read luminescence as a measure of living cells.

The next assay concerns the target T1, cIAP1 BIR3 (Homo sapiens, UniProt Q13490).
T1 construct: covering amino acids 258 to 363; GST; His; purchased RBC APT-11-370; host or cells: E. coli
Put plainly: Binding experiment of cIAP1 BIR3 (fluorescence polarization). The following applies: 20 nM cIAP1 BIR3, 5 nM probe ARPFAQ-K(5-FAM)-NH2, 60 min. The method, then: (§1) Buffer system for the test (a buffer for cIAP1 BIR3 or XIAP BIR3): 100 mM potassium phosphate, pH 7.5; 0.1% BSA; 0.005% Triton X-100; and 1% dimethyl sulfoxide.
(§2) Probe: ARPFAQ-K(5-FAM)-NH2.
cIAP1-BIR3-his: RBC Cat #APT-11-370, the BIR3 domain of human cIAP1 (covering amino acids 258 to 363; cIAP1 BIR3), as a GST-fusion protein expressed and purified from E. coli.
(§3) Reaction conditions: 5 nM ARPFAQ-K(5-FAM)-NH2, 20 nM cIAP1 BIR3 and 30 nM XIAP BIR3.
(§4) First, a fresh buffer for cIAP1 BIR3 or XIAP BIR3 was prepared, a cIAP1 BIR3 or XIAP BIR3 solution (2-fold diluted) was added thereto, and then a compound to be tested which had been dissolved in 100% DMSO was added into the buffer solution containing cIAP1 BIR3 or XIAP BIR3 by an acoustic technique. Thereafter, the probe (2-fold diluted) was added, and the resultant was mixed and incubated in the dark at room temperature for 60 minutes. The fluorescence polarization was measured and the mP value was calculated. Finally, the IC50 value was obtained.
(In fluorescence polarisation assays a small probe gives low polarisation when free and higher when bound to something large.)

Another assay concerns the target T2, XIAP BIR3 (Homo sapiens, UniProt P98170).
T2 construct: covering amino acids 255 to 356; GST; His; purchased RBC APT-11-374; host or cells: E. coli
The experiment in a line: Binding experiment of XIAP BIR3 (fluorescence polarization). The following applies: 30 nM XIAP BIR3, 5 nM probe ARPFAQ-K(5-FAM)-NH2, 60 min. The method, then:
as §1, §2
XIAP-BIR3-his: RBC Cat #APT-11-374, the BIR3 domain of XIAP (covering amino acids 255 to 356; XIAP BIR3), as a GST-fusion protein expressed and purified from E. coli.
as §3, §4

T2 sequence (P98170 255-356): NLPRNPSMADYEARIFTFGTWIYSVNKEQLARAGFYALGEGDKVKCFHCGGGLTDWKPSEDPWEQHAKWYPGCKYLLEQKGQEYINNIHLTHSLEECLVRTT
T1 sequence (Q13490 258-363): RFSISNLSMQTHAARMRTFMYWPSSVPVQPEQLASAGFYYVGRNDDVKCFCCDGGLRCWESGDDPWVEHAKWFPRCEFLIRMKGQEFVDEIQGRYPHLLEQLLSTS

For the molecule `CN[C@@H](C)C(=O)N[C@H](C(=O)N1CCC[C@H]1Cn1cc(C(C)=O)c2cc(Cl)c(F)cc21)C1CCCCC1` [Example 9], the IC50 in the assay with MDA-MB-231 cells is 26 nM; at cIAP1 BIR3 it was 5.7 nM; on XIAP BIR3, 20 nM.
On the same counts, the results for `CN[C@@H](C)C(=O)N[C@H](C(=O)N1CCC[C@H]1Cn1cc(-c2ccnn2C)c2cc(F)ccc21)C1CCCCC1` [Example 26] are 181 nM, 1.1 nM and 60 nM.
As for `CN[C@@H](C)C(=O)N[C@H](C(=O)N1CCC[C@H]1Cn1cc(C#N)c2cc(Cl)ccc21)C1CCCCC1` [Example 18], the IC50 is 22.5 nM in the assay on MDA-MB-231 cells, 5.1 nM at cIAP1 BIR3 and 42.5 nM at XIAP BIR3.
On the same counts, the results for `CN[C@@H](C)C(=O)N[C@H](C(=O)N1CCC[C@H]1Cn1cc(-c2ccnn2C)c2cc(Cl)ccc21)C1CCCCC1` [Example 27] are 282 nM, 4.4 nM and 46.4 nM.
In the same order, the values of `CN[C@@H](C)C(=O)N[C@H](C(=O)N1CCC[C@H]1Cn1cc(C(C)=O)c2cc(Cl)c(Cl)cc21)C1CCCCC1` [Example 8] are 75 nM, 5.6 nM and 40.3 nM.
Take `CN[C@@H](C)C(=O)N[C@H](C(=O)N1CCC[C@H]1Cn1nc(C(C)=O)c2cc(F)ccc21)C1CCCCC1` [Example 15]: the IC50 in the assay with MDA-MB-231 cells came out at 93 nM; on cIAP1 BIR3, 4 nM; at XIAP BIR3 it was 258 nM.
On the same counts, the results for `CN[C@@H](C)C(=O)N[C@H](C(=O)N1CCC[C@H]1Cn1c(C)c(C(C)=O)c2cc(Cl)ccc21)C1CCCCC1` [Example 13] are 44.3 nM, 5 nM and 30.6 nM.
In the same order, the values of `CN[C@@H](C)C(=O)N[C@H](C(=O)N1CCC[C@H]1Cn1cc(-c2ccccc2C)c2cc(F)ccc21)C1CCCCC1` [Example 25] are 1150 nM, 6.8 nM and 208 nM.
In the same order, the values of `CN[C@@H](C)C(=O)N[C@H](C(=O)N1CCC[C@H]1Cn1cc(C(C)=O)c2cc(Br)ccc21)C1CCCCC1` [Example 7] are 16.6 nM, 4.9 nM and 45 nM.
For the molecule `CN[C@@H](C)C(=O)N[C@H](C(=O)N1CCC[C@H]1Cn1nc(C#N)c2cc(Cl)ccc21)C1CCCCC1` [Example 19], the IC50 with MDA-MB-231 cells worked out at 43.1 nM; at cIAP1 BIR3, 4.6 nM; at XIAP BIR3 it was 129 nM.
On the same counts, the results for `CN[C@@H](C)C(=O)N[C@H](C(=O)N1CCC[C@H]1Cn1cc(C(=O)C(C)C)c2cc(Cl)ccc21)C1CCCCC1` [Example 24] are 73 nM, 4.1 nM and 19.2 nM.
On the same counts, the results for `CN[C@@H](C)C(=O)N[C@H](C(=O)N1CCC[C@H]1Cn1cc(C(C)=O)c2cc(OC(F)(F)F)ccc21)C1CCCCC1` [Example 11] are 74.8 nM, 5.2 nM and 139 nM.
In the case of `CN[C@@H](C)C(=O)N[C@H](C(=O)N1CCC[C@H]1Cn1cc(C(C)=O)c2cc(C(F)(F)F)ccc21)C1CCCCC1` [Example 3], the IC50 stood at 16 nM in the assay on MDA-MB-231 cells, 1 nM at cIAP1 BIR3 and 18.1 nM on XIAP BIR3.
On the same counts, the results for `CN[C@@H](C)C(=O)N[C@H](C(=O)N1CCC[C@H]1Cn1cc(C(N)=O)c2cc(F)ccc21)C1CCCCC1` [Example 22] are 85 nM, 3 nM and 42 nM.
On the same counts, the results for `CN[C@@H](C)C(=O)N[C@H](C(=O)N1CCC[C@H]1Cn1cc(S(C)(=O)=O)c2cc(F)ccc21)C1CCCCC1` [Example 20] are 75 nM, 1.1 nM and 53.9 nM.
On the same counts, the results for `CN[C@@H](C)C(=O)N[C@H](C(=O)N1CCC[C@H]1Cn1cc(C(C)=O)c2c(F)c(Cl)ccc21)C1CCCCC1` [Example 10] are 32.4 nM, 4.5 nM and 27.2 nM.
On to `CN[C@@H](C)C(=O)N[C@H](C(=O)N1CCC[C@H]1Cn1cc(C(C)=O)c2cc(Cl)cnc21)C1CCCCC1` [Example 16], for which the IC50 in the assay on MDA-MB-231 cells turned out to be 109 nM; on cIAP1 BIR3, 8.4 nM; at XIAP BIR3 it was 346 nM.
In the same order, the values of `CN[C@@H](C)C(=O)N[C@H](C(=O)N1CCC[C@H]1Cn1nc(C(C)=O)c2cc(Cl)ccc21)C1CCCCC1` [Example 14] are 57.7 nM, 6.2 nM and 49.9 nM.
On the same counts, the results for `CN[C@@H](C)C(=O)N[C@H](C(=O)N1CCC[C@H]1Cn1cc(C(C)=O)c2ccc(Cl)cc21)C1CCCCC1` [Example 5] are 75 nM, 2.6 nM and 95.9 nM.
Turning to `CN[C@@H](C)C(=O)N[C@H](C(=O)N1CCC[C@H]1Cn1cc(C#N)c2cc(F)ccc21)C1CCCCC1` [Example 17], the IC50 with MDA-MB-231 cells was determined as 79 nM; at cIAP1 BIR3 it was 1.9 nM; on XIAP BIR3 it was 80.7 nM.
On the same counts, the results for `CN[C@@H](C)C(=O)N[C@H](C(=O)N1CCC[C@H]1Cn1cc(N2CCN(C)C2=O)c2cc(Cl)ccc21)C1CCCCC1` [Example 29] are 134 nM, 6.1 nM and 31.4 nM.
For the molecule `CN[C@@H](C)C(=O)N[C@H](C(=O)N1CCC[C@H]1Cn1cc(N2CCCC2=O)c2cc(Cl)ccc21)C1CCCCC1` [Example 28], the values for the 50% inhibitory concentration (IC50) with MDA-MB-231 cells, at cIAP1 BIR3 and at XIAP BIR3 were 36.7 nM, 5.2 nM and 27.3 nM, respectively.
Take `CN[C@@H](C)C(=O)N[C@H](C(=O)N1CCC[C@H]1Cn1cc(C(C)=O)c2cc(F)ccc21)C1CCCCC1` [Example 1]: the IC50 with MDA-MB-231 cells is 70 nM; at cIAP1 BIR3, 3.7 nM; at XIAP BIR3 it was 74.7 nM.
In the same order, the values of `CN[C@@H](C)C(=O)N[C@H](C(=O)N1CCC[C@H]1Cn1cc(S(C)(=O)=O)c2cc(Cl)ccc21)C1CCCCC1` [Example 21] are 16.4 nM, 4.2 nM and 37.4 nM.
`CN[C@@H](C)C(=O)N[C@H](C(=O)N1CCC[C@H]1Cn1cc(C(C)=O)c2c(Cl)cccc21)C1CCCCC1` [Example 4]: the results for the IC50 with MDA-MB-231 cells, at cIAP1 BIR3 and on XIAP BIR3 were 220 nM, 2.6 nM and 97 nM, respectively.
In the same order, the values of `CN[C@@H](C)C(=O)N[C@H](C(=O)N1CCC[C@H]1Cn1cc(N2CCOC2=O)c2cc(Cl)ccc21)C1CCCCC1` [Example 30] are 47.6 nM, 4.4 nM and 21.6 nM.
On the same counts, the results for `CN[C@@H](C)C(=O)N[C@H](C(=O)N1C[C@@H](Oc2ccccc2)C[C@H]1Cn1cc(C(C)=O)c2cc(F)ccc21)C1CCCCC1` [Example 31] are 1460 nM, 3.7 nM and 49.1 nM.
For the molecule `CN[C@@H](C)C(=O)N[C@H](C(=O)N1CCC[C@H]1Cn1cc(C(=O)N(C)C)c2cc(Cl)ccc21)C1CCCCC1` [Example 23], the IC50 turned out to be 45.2 nM in the assay on MDA-MB-231 cells, 4.6 nM on cIAP1 BIR3 and 21.3 nM on XIAP BIR3.
Consider `CN[C@@H](C)C(=O)N[C@H](C(=O)N1CCC[C@H]1Cn1cc(C(C)=O)c2cccc(Cl)c21)C1CCCCC1` [Example 6], for which the 50% inhibitory concentration (IC50) in the assay with MDA-MB-231 cells turned out to be 497 nM; at cIAP1 BIR3, 58.3 nM; at XIAP BIR3, 9.3 nM.

In general, IC50 refers to the concentration needed to halve the response being measured. High values mean a need for much substance, low ones inhibition by little substance.
